Values after ≈ are worked out from the molar mass of the structure shown. Starred links: 1 amine or outer side, 2 acyl side, 3 side chain; linkers in the order of their positions; H or OH if unused. Positions of bridges follow the written chain, without caps; N, C: chain ends. Non-standard residues stand in square brackets, D forms with d. Residues, ends and D or L forms follow the SMILES beside them. *: point of attachment. X1 = O=C([C@@H](N[*:1])[C@H](O)[C@@H](O)c1ccc(OCc2cn(CCCNc3ccc([N+](=O)[O-])c4nonc34)nn2)cc1)[*:2]; Orn(4R-OH,5R-OCH2CH2NMe3+) = C[N+](C)(C)CCO[C@@H](N[*:3])[C@H](O)C[C@H](N[*:1])C(=O)[*:2]; pTerphenylCO(4''-OnC5H11) = CCCCCOc1ccc(-c2ccc(-c3ccc(C(=O)*)cc3)cc2)cc1; hTyr(3S-OH,4S-OH) = N[C@H](C(=O)O)[C@H](O)[C@@H](O)c1ccc(O)cc1; Pro(3S-OH,4S-Me) = C[C@H]1CN[C@H](C(=O)O)[C@H]1O; Hyp = O=C(O)[C@@H]1C[C@@H](O)CN1
Tests used:
[1] = test system: C. albicans SC5314 cells; conditions: incubated with cells or lysates of C. albicans SC5314, 24 h, regardless of the media used (PBS, YPAD)
Experimental: C. albicans SC5314 cells were streaked from glycerol stocks onto YPAD agar plates and grown for 24 h at 30 °C. Colonies were grown in tubes in 3 mL of YPAD broth for 24 h at 30 °C with shaking. Cultures were diluted 1:50 and incubated in 5 mL of YPAD broth for 3 h at 30 °C with shaking until log-phase growth was observed. Cultures were then centrifuged (4000 rpm, 3 min), washed with PBS buffer, and resuspended in 1 mL of PBS buffer or YPAD. Cells were incubated with TMR-based probes (1 or 3) at a final concentration of 10 μM at 30 °C with shaking in the dark for 24 h. After washing three times with PBS, cells were resuspended in 75 μL of TNE buffer (10 mM Tris, 100 mM NaCl, and 1 mM ethylenediaminetetraacetic acid, pH 8.0) in a 1.5 mL Eppendorf tube, and 0.5 mm diameter beads were added to the yeast solution. The mixture was agitated on a vortex at maximum speed for 5 min. Next, 200 μL of 2% Triton X-100 in TNE buffer (v/v) was added to the agitated solution, and then the mixture was sonicated for 15 min. To clarify the yeast lysate, the mixture was centrifuged twice (16 000g, 20 min), and the supernatant was removed and filtered using a 0.22 μm syringe filter. The samples were analyzed using analytical reverse-phase HPLC at a 550 nm wavelength. HPLC conditions: mobile phase: acetonitrile in H2O (containing 0.1% trifluoroacetic acid (v/v)), gradient from 10 to 90%; flow rate: 1 mL/min; absorbance wavelength: 550 nm. Each sample was tested in two independent sets of experiments. The percentages of intact echinocandin were determined using the area calculation function available in the Hitachi Primaide Software and are presented as means (two replicates) ± standard deviation (SD).

[2] = test system: C. albicans ATCC 24433; conditions: strain C, echinocandin-susceptible; YPAD broth, 24 h, 30 °C, OD600 reduced by ≥75%
Experimental: (§1) Candida strains were streaked from glycerol stock onto YPAD agar plates and grown for 24 h at 30 °C. Colonies were suspended in 1 mL of PBS and diluted to an optical density of 2 × 10^–4 at 600 nm (OD600) in flat-bottom 96-well microplates (Corning) with YPAD broth containing dilutions of each tested compound at concentrations ranging from 64 to 0.008 μg/mL in twofold dilutions. Control wells with yeast cells but no drug and blank wells that contained only YPAD were prepared. MIC values (Table S2) were determined after 24 h at 30 °C by measuring the OD600 using a plate reader (Infinite M200 PRO, Tecan). MIC values were defined as the point at which the OD600 was reduced by ≥75% compared to the no-drug wells. Each concentration was tested in triplicate, and the results were confirmed by two independent sets of experiments.

[3] = test system: C. albicans ATCC 90028; conditions: strain E, echinocandin-susceptible; YPAD broth, 24 h, 30 °C, OD600 reduced by ≥75%
Experimental: as §1

[4] = test system: C. glabrata ATCC 90030; conditions: strain K, echinocandin-susceptible; YPAD broth, 24 h, 30 °C, OD600 reduced by ≥75%
Experimental: as §1

[5] = test system: C. albicans DPL1016 (DP-A15-10); conditions: strain F, echinocandin resistant FKS mutation; YPAD broth, 24 h, 30 °C, OD600 reduced by ≥75%
Experimental: as §1

[6] = test system: C. albicans T-2068 (DP-C42); conditions: strain G, echinocandin resistant FKS mutation; YPAD broth, 24 h, 30 °C, OD600 reduced by ≥75%
Experimental: as §1

[7] = test system: C. albicans ATCC 10231; conditions: strain D, echinocandin-susceptible; YPAD broth, 24 h, 30 °C, OD600 reduced by ≥75%
Experimental: as §1

[8] = test system: C. glabrata ATCC 66032; conditions: strain J, echinocandin-susceptible; YPAD broth, 24 h, 30 °C, OD600 reduced by ≥75%
Experimental: as §1

[9] = test system: C. glabrata TGL00275; conditions: strain M, echinocandin resistant FKS mutation; YPAD broth, 24 h, 30 °C, OD600 reduced by ≥75%
Experimental: as §1

[10] = test system: C. glabrata ATCC 2001; conditions: strain I, echinocandin-susceptible; YPAD broth, 24 h, 30 °C, OD600 reduced by ≥75%
Experimental: as §1

[11] = test system: C. glabrata TGL00277; conditions: strain N, echinocandin resistant FKS mutation; YPAD broth, 24 h, 30 °C, OD600 reduced by ≥75%
Experimental: as §1

[12] = test system: C. albicans SC5314; conditions: strain A, echinocandin-susceptible; YPAD broth, 24 h, 30 °C, OD600 reduced by ≥75%; triplicate, two independent experiments
Experimental: as §1

[13] = test system: C. glabrata T-192 (1775); conditions: strain L, echinocandin-susceptible; YPAD broth, 24 h, 30 °C, OD600 reduced by ≥75%
Experimental: as §1

[14] = test system: C. glabrata EF1620; conditions: strain H, echinocandin-susceptible; YPAD broth, 24 h, 30 °C, OD600 reduced by ≥75%
Experimental: as §1

[15] = incubation in human plasma for 44 h at 37 °C; cited from earlier work
From the text: Intending to develop echinocandins with improved chemical stability under physiological conditions, Cidara Therapeutics developed rezafungin (RZF), a novel ANF derivative with distinctive pharmacokinetic and pharmacodynamic profiles, which entered phase III trials in October 2018 (Figure 1).[18]−[21] […] Instead of the daily intravenous administration regime used for the other three echinocandins, RZF can be administered intravenous ...

[16] = test system: C. albicans SN152; test: MIC broth double-dilution assay; type: cell-based, Candida albicans; conditions: strain B, echinocandin-susceptible; YPAD broth, 24 h, 30 °C, OD600 reduced by ≥75%
Experimental: as §1, with “Colonies” for “Candida strains were streaked from glycerol stock onto YPAD agar plates and grown for 24 h at 30 °C. Colonies”

Compound | decomposition [1] | MIC [2] | MIC [3] | MIC [4] | MIC [5] | MIC [6] | MIC [7] | MIC [8] | MIC [9] | MIC [10] | MIC [11] | MIC [12] | MIC [13] | MIC [14] | percent of intact drug [15] | MIC [16]
CCCCCOc1ccc(-c2ccc(-c3ccc(C(=O)N[C@H]4C[C@@H](O)[C@@H](OCCc5cn(CCCNC(=O)c6ccc(-c7c8ccc(=[N+](C)C)cc-8oc8cc(N(C)C)ccc78)c(C(=O)[O-])c6)nn5)NC(=O)[C@@H]5[C@@H](O)[C@@H](C)CN5C(=O)[C@H]([C@@H](C)O)NC(=O)[C@H]([C@H](O)[C@@H](O)c5ccc(O)cc5)NC(=O)[C@@H]5C[C@@H](O)CN5C(=O)[C@H]([C@@H](C)O)NC4=O)cc3)cc2)cc1 [Probe 3] | no significant decomposition | – | – | – | – | – | – | – | – | – | – | – | – | – | – | –
CCCCCOc1ccc(-c2ccc(-c3ccc(C(=O)N[C@H]4C[C@@H](O)[C@@H](OCC[N+](C)(C)C)NC(=O)[C@@H]5[C@@H](O)[C@@H](C)CN5C(=O)[C@H]([C@@H](C)O)NC(=O)[C@H]([C@H](O)[C@@H](O)c5ccc(O)cc5)NC(=O)[C@@H]5C[C@@H](O)CN5C(=O)[C@H]([C@@H](C)O)NC4=O)cc3)cc2)cc1 [RZF, rezafungin, reference compound] ({pTerphenylCO(4''-OnC5H11)}-[Orn(4R-OH,5R-OCH2CH2NMe3+)]T[Hyp][hTyr(3S-OH,4S-OH)]T[Pro(3S-OH,4S-Me)]; lactam 1-C) | – | 0.031 µg/mL | 0.031 µg/mL | 0.031 µg/mL | 8 µg/mL | 4 µg/mL | 0.063 µg/mL | 0.031 µg/mL | 8 µg/mL | 0.063 µg/mL | > 64 µg/mL | 0.016 µg/mL | 0.016 µg/mL | 0.016 µg/mL | 91% | 0.031 µg/mL
CC[C@H](C)C[C@H](C)CCCCCCCCC(=O)N[C@H]1C[C@@H](O)[C@@H](NCCN)NC(=O)[C@@H]2[C@@H](O)CCN2C(=O)[C@H]([C@H](O)CCN)NC(=O)[C@H]([C@H](O)[C@@H](O)c2ccc(OCc3cn(CCCNc4ccc([N+](=O)[O-])c5nonc45)nn3)cc2)NC(=O)[C@@H]2C[C@@H](O)CN2C(=O)[C@H]([C@@H](C)O)NC1=O [Probe 2] | – | 2 µg/mL (≈ 1.43 µM) | 2 µg/mL (≈ 1.43 µM) | 4 µg/mL (≈ 2.87 µM) | > 64 µg/mL | 64 µg/mL (≈ 45.9 µM) | 2 µg/mL (≈ 1.43 µM) | 4 µg/mL (≈ 2.87 µM) | > 64 µg/mL | 2 µg/mL (≈ 1.43 µM) | > 64 µg/mL | 1 µg/mL (≈ 0.717 µM) | 2 µg/mL (≈ 1.43 µM) | 4 µg/mL (≈ 2.87 µM) | – | 1 µg/mL (≈ 0.717 µM)
CCCCCOc1ccc(-c2ccc(-c3ccc(C(=O)N[C@H]4C[C@@H](O)[C@@H](OCC[N+](C)(C)C)NC(=O)[C@@H]5[C@@H](O)[C@@H](C)CN5C(=O)[C@H]([C@@H](C)O)NC(=O)[C@H]([C@H](O)[C@@H](O)c5ccc(OCc6cn(CCCNc7ccc([N+](=O)[O-])c8nonc78)nn6)cc5)NC(=O)[C@@H]5C[C@@H](O)CN5C(=O)[C@H]([C@@H](C)O)NC4=O)cc3)cc2)cc1 [Probe 6] ({pTerphenylCO(4''-OnC5H11)}-[Orn(4R-OH,5R-OCH2CH2NMe3+)]T[Hyp][X1]T[Pro(3S-OH,4S-Me)]; lactam 1-C) | – | 0.5 µg/mL | 0.5 µg/mL | 1 µg/mL | > 64 µg/mL | > 64 µg/mL | 0.5 µg/mL | 1 µg/mL | > 64 µg/mL | 1 µg/mL | > 64 µg/mL | 0.5 µg/mL | 0.5 µg/mL | 0.5 µg/mL | – | 0.5 µg/mL
